Experimental data taken from patent US9556217B2, “Amphiphilic compounds” (WISCONSIN ALUMNI RESEARCH FOUNDATION, priority 2012, dated 2017).

Tests used:
[1] = Critical micelle concentration (fluorescent dye solubilization); type: physicochemical
Excerpt: The “Critical Micelle Concentration” (CMC) refers to the concentration of a detergent (e.g., an amphiphile as described herein) in an aqueous solution at which the detergent molecules self-assemble into micelles. Below the CMC, detergents are mostly monomeric; above the CMC, micelle concentration increases linearly with detergent concentration. The CMC is dependent upon many factors and is detergent-specific. The CMC of a detergent can be determined experimentally by measuring the solubilization of a water-insoluble dye or fluorophore while varying the concentration of detergent. A CMC may also be determined by measuring the diminution of the surface tension of an aqueous solution as a function of detergent concentration (CMCs determined by either method correlate with each other). The CMC is determined by extrapolating the plot of solubilization vs. concentration (or surface tension vs. concentration) in the two linear regions above and below the CMC. Where the two lines intersect is the CMC. The CMC can also be determined by the method of Nugebauer, J. M. (1990), Methods in Enzymology, 182:239-253.
The four compounds were readily prepared on a multi-gram scale (see Examples 1 and 2 below, and FIGS. 13-15), as is necessary if they are to serve as research tools. All four are highly soluble in aqueous solution (>20 wt %) and have relatively low critical micelle concentrations (CMC; determined by fluorescent dye solubilization).

[2] = Hydrodynamic radius of micelles by dynamic light scattering; type: physicochemical; settings: Mean ± SD, n = 5
Excerpt: These values are somewhat smaller than the CMC of DDM, which indicates a strong tendency of the new agents to self-assemble, and which can be advantageous for IMP handling because detrimental levels of non-micellar amphiphile can be avoided. Table 1 provides the hydrodynamic radius (Rh) of the micelles formed by each amphiphile, as determined by dynamic light scattering (DLS). The micelles formed by GLC amphiphiles are slightly smaller than those formed by DDM, while the micelles formed by GDN are slightly larger.

β2AR-T4L = β2AR-T4L thermostability (Tm, carazolol fluorescence); parameters: species or system human; settings: for β2AR-T4L Tm comparison at higher concentrations: higher concentrations than CMC+0.05 wt %
Method: To assess the new amphiphiles with a GPCR, a human 132 adrenergic receptor-T4-lysozyme fusion protein (β2AR-T4L) was used (Rosenbaum et al., Science 2007, 318, 1266-1273). Stability was assessed via […] of β2AR-T4L bound to the inverse agonist carazolol. β2AR-T4L was initially solubilized and purified with DDM, and this detergent was then exchanged for the agent to be evaluated. The fluorescence emission maximum of carazolol occurs at 356 nm in aqueous solution, but emission is shifted to 341 nm in the receptor-bound state. The 341:356 nm peak intensity ratio was used to monitor the relative amounts of intact and denatured β2AR-T4L, with Tm defined as the temperature at which the 341:356 nm peak intensity ratio is half-way between that of fully native receptor and the fully denatured receptor.
Stability of β2AR-T4L was assessed by measuring the melting temperature (Tm) of the receptor according to the procedure reported by Chae and coworkers (Nat. Methods 2010, 7, 1003-1008).
A receptor fusion protein of T4 lysozyme inserted in the 3rd intracellular loop of the β2AR^4 was cloned into BestBac baculovirus (Expression Systems, CA) and expressed in Sf9 insect cell cultures. The receptor was solubilized and purified in DDM as previously described (Kobilka, Anal. Biochem. 1995, 231, 269-271). […]
For stability measurements the carazolol-bound receptor was diluted below the CMC for DDM by adding 3 μL of the concentrated receptor in a quartz cuvette containing 600 μL buffer (100 mM NaCl, 20 mM HEPES, pH 7.5) with amphiphiles at various concentrations above their CMC. […] Fluorescence emission from carazolol was obtained following 5 min incubations from 25 to 85° C. in twelve continuous 5° C. increments. Excitation was set at 325 nm, and emission was measured from 335 to 400 nm with an integration time of 0.3 s nm-1 using a bandpass of 1 nm for both excitation and emission. The 341:356 nm peak ratio was calculated and graphed using Microsoft Excel and GraphPad Prism software.

membrane proteins = assay: Retention of extracted membrane proteins in soluble form in micelles (summary)
Excerpt: The amphiphiles were thus evaluated as membrane protein solubilizers and stabilizers and they compared very favorably with DDM, a standard reagent in the field. Compared to DDM, for example, one of the evaluated amphiphiles forms micelles at one-tenth of the concentration required for DDM. Compared with DDM, GDN performs similarly for extracting membrane proteins from membranes, and stably retains the proteins in a soluble form within the micelles for substantially longer (>3 weeks) than DDM. Such improved stability (without sacrificing extraction efficiency) is a valuable trait for research tool amphiphiles.
The amphiphiles described herein require lower concentrations than many commonly used surfactants to form stable micelles.

Structure (SMILES) | CMC [1] | CMC (wt %) [1] | Rh (nm), hydrodynamic radius of micelles [2] | β2AR-T4L Tm comparison at relatively low concentrations (β2AR-T4L; <CMC+0.05 wt %) | Time until stabilized protein activity began to decay (membrane proteins) | β2AR-T4L Tm comparison at higher concentrations (β2AR-T4L) | Time proteins are stably retained in soluble form within the micelles (membrane proteins)
CCCCCCCCCCCCO[C@@H]1O[C@H](CO)[C@@H](O[C@H]2O[C@H](CO)[C@@H](O)[C@H](O)[C@H]2O)[C@H](O)[C@H]1O [DDM, dodecyl-β-D-maltoside, reference compound] | ~170 µM | ~0.0087 wt % | 3.42 ± 0.03 nm | superior to the new amphiphiles | a few hours or a few days |  | 
C[C@@H]1CC[C@@]2(OC1)O[C@H]1C[C@H]3[C@@H]4CC=C5C[C@@H](OCCC(CO[C@@H]6OC(CO)[C@@H](O[C@H]7OC(CO)[C@@H](O)C(O)C7O)C(O)C6O)CO[C@@H]6OC(CO)[C@@H](O[C@H]7OC(CO)[C@@H](O)C(O)C7O)C(O)C6O)CC[C@]5(C)[C@H]4CC[C@]3(C)[C@@H]1[C@@H]2C (some centres unmarked) [GDN, glyco-diosgenin] | ~18 µM | ~0.0021 wt % | 3.86 ± 0.05 nm |  |  | superior to DDM | > 3 weeks
CO[C@@H]1CC[C@@]2(C)[C@H](CC[C@@H]3[C@@H]2CC[C@]2(C)[C@@H]([C@H](C)CCCOCC(C)(CO[C@@H]4OC(CO)C(O[C@@H]5OC(CO)[C@@H](O)[C@H](O)C5O)[C@@H](O)C4O)CO[C@@H]4OC(CO)[C@@H](O[C@H]5OC(CO)[C@@H](O)[C@H](O)C5O)[C@H](O)C4O)CC[C@@H]32)C1 (some centres unmarked) [GLC-2] | ~8.0 µM | ~0.0009 wt % | 3.32 ± 0.04 nm |  |  | superior to DDM | 
